TGI data for eight molecules are collected here from PubChem BioAssay (NCI).

Test systems include SF-295 CNS; OVCAR-8 ovarian; A549 NSCLC; HCT-15 colon; SK-MEL-2 melanoma; OVCAR-5 ovarian; SF-268 CNS; UO-31 renal; A498 renal; SNB-19 CNS; UACC-62 melanoma; HT29 colon; OVCAR-3 ovarian; SN12C renal.
What all share (assay): inhibition of tumour cell growth, NCI panel, 48 h

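Five concentrations, 48 hours, 96-well plates. At the TGI there is no net growth.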

In the case of `CN(C)c1ccc(/C=c2/c3ccccc3n3c2c2c([n+]3C)CCCC2)cc1`, the TGI with SF-295 CNS is 0.653 µM; in the assay with OVCAR-8 ovarian it was 2.49 µM; in the assay with A549 NSCLC it was 1.96 µM; in the assay with HCT-15 colon it was 5.56 µM; with SK-MEL-2 melanoma it was 0.59 µM; in the assay on OVCAR-5 ovarian, 5.86 µM. The TGI was determined as 1.6 µM in the assay with SF-268 CNS; 6.5 µM in the assay on UO-31 renal; 0.92 µM in the assay with A498 renal; 6.68 µM in the assay with SNB-19 CNS; 1.95 µM with UACC-62 melanoma; 1.61 µM in the assay with HT29 colon. Besides, the values for the TGI in the assay on OVCAR-3 ovarian and with SN12C renal were 1.17 µM and 1.59 µM, respectively.

In the case of `CCOC(=O)CCC(NC(=O)Cc1ccc(Nc2nc3cc(F)c(F)cc3nc2C(=O)OCC)cc1)C(=O)OCC` (configuration not stated), the TGI in the assay with SF-295 CNS was > 100 µM; in the assay on OVCAR-8 ovarian it was > 100 µM; in the assay with A549 NSCLC, > 100 µM; in the assay with HCT-15 colon, > 100 µM; with SK-MEL-2 melanoma it was 60.4 µM; in the assay with OVCAR-5 ovarian it was > 100 µM. Moreover, the TGI in the assay with SF-268 CNS, in the assay on UO-31 renal, in the assay with A498 renal, in the assay on SNB-19 CNS, in the assay on UACC-62 melanoma and in the assay on HT29 colon was > 100 µM each time. In addition, the TGI in the assay with OVCAR-3 ovarian and in the assay on SN12C renal was > 100 µM each time.

With `COc1cc2c(cc1OC)C(CC1=C(c3ccccc3)CN3CCc4cc(OC)c(OC)cc4C3C1)NCC2` (configuration not stated), the TGI in the assay on SF-295 CNS was 31.1 µM; with OVCAR-8 ovarian it was 36.8 µM; with A549 NSCLC, 33.5 µM; in the assay on HCT-15 colon, 36.1 µM; in the assay on SK-MEL-2 melanoma, 37.1 µM; with OVCAR-5 ovarian it was 35.4 µM. For the same molecule, the TGI was found to be 37.5 µM in the assay on SF-268 CNS; 23.4 µM in the assay with UO-31 renal; 33.2 µM with A498 renal; 38.8 µM with SNB-19 CNS; 36.3 µM in the assay with UACC-62 melanoma; 26.3 µM in the assay on HT29 colon. In addition, the TGI in the assay with OVCAR-3 ovarian turned out to be 34.8 µM; in the assay with SN12C renal it was 37 µM.

On to `CO/N=C(\C)c1ccc(Nc2nc3ccccc3c3occc23)cc1`, for which the TGI in the assay on SF-295 CNS came out at 31.5 µM; in the assay with OVCAR-8 ovarian it was 33.9 µM; with A549 NSCLC, 39 µM; in the assay with HCT-15 colon it was 30.5 µM; in the assay on SK-MEL-2 melanoma, 33.4 µM; with OVCAR-5 ovarian, 31.5 µM. Besides, the TGI with SF-268 CNS came to 32.5 µM; in the assay on UO-31 renal, 35.9 µM; in the assay on A498 renal, 29.7 µM; with SNB-19 CNS, 31.2 µM; with UACC-62 melanoma it was 24.7 µM; with HT29 colon, 14.5 µM. The TGI came out at 96.1 µM in the assay with OVCAR-3 ovarian and 28.9 µM in the assay on SN12C renal.

With `Cc1n(Cc2ccccc2)c2c([n+]1C)C(=O)c1ccccc1C2=O`, the TGI with SF-295 CNS amounted to 0.554 µM; with OVCAR-8 ovarian it was 0.826 µM; in the assay on A549 NSCLC, 0.197 µM; in the assay on HCT-15 colon, 16.2 µM; in the assay with SK-MEL-2 melanoma, 0.388 µM; in the assay on OVCAR-5 ovarian it was 0.503 µM. For the same molecule, the TGI in the assay with SF-268 CNS came to 0.143 µM; with UO-31 renal, 20.9 µM; in the assay with A498 renal it was 0.653 µM; with SNB-19 CNS, 0.0916 µM; with UACC-62 melanoma, 0.451 µM; in the assay on HT29 colon, 0.353 µM. The TGI came out at 0.0771 µM in the assay on OVCAR-3 ovarian and 0.112 µM in the assay with SN12C renal.

On to `O=C(O)C(O)C(O)C(O)C(O)c1nc2ccccc2s1` (configuration not stated), for which the TGI in the assay on SF-295 CNS is 31.9 µM; in the assay with OVCAR-8 ovarian, 37.4 µM; with A549 NSCLC, 39.3 µM; in the assay on HCT-15 colon, 82.9 µM; in the assay on SK-MEL-2 melanoma it was 36.5 µM; in the assay on OVCAR-5 ovarian, 72.9 µM. The TGI in the assay with SF-268 CNS was found to be 29 µM; in the assay on UO-31 renal it was 30.1 µM; in the assay with A498 renal it was 63.7 µM; with SNB-19 CNS it was 49.8 µM; in the assay on UACC-62 melanoma it was 28.8 µM; with HT29 colon, 41.9 µM. Moreover, the TGI amounted to 31.4 µM with OVCAR-3 ovarian and 34.8 µM in the assay with SN12C renal.

Regarding `Cc1c(O)ccc2c(O)c(NC(=O)c3ccc4c(c3)CCC(C)(C)O4)c(=O)oc12`, the TGI in the assay with SF-295 CNS, in the assay with OVCAR-8 ovarian, in the assay with A549 NSCLC, with HCT-15 colon, in the assay on SK-MEL-2 melanoma and with OVCAR-5 ovarian was > 100 µM throughout. In addition, the TGI with SF-268 CNS, in the assay on UO-31 renal, in the assay on A498 renal, in the assay with SNB-19 CNS, in the assay with UACC-62 melanoma and in the assay on HT29 colon was > 100 µM throughout. Further, the TGI with OVCAR-3 ovarian and in the assay on SN12C renal was > 100 µM each time.

For `CC(=O)c1ccccc1NP(=O)(c1ccccc1)c1ccccc1`, the TGI in the assay on SF-295 CNS, in the assay on OVCAR-8 ovarian, with A549 NSCLC, in the assay on HCT-15 colon, in the assay on SK-MEL-2 melanoma and with OVCAR-5 ovarian was > 100 µM throughout. Besides, the TGI in the assay on SF-268 CNS, in the assay with UO-31 renal, with A498 renal, in the assay with SNB-19 CNS, in the assay with UACC-62 melanoma and with HT29 colon was > 100 µM throughout. For the same molecule, the TGI with OVCAR-3 ovarian and with SN12C renal was > 100 µM in each case.
